In ChEMBL document CHEMBL5365394, “Design, synthesis and biological evaluation of novel spiro-quinazolinone derivatives as chitin synthase inhibitors and antifungal agents” (Eur J Med Chem, 2023):
Converted amounts (≈) assume the structure as drawn. The source made the active and inactive calls. The calls are words filed in the database; no cut-off is given here.

Assays:
[1] = Inhibition of Saccharomyces cerevisiae CGMCC2.145 chitin synthase […] by TMB based microplate reader analysis
[2] = tested on: Candida albicans; test: Antifungal activity against Micafungin-resistant Candida albicans ATCC 76615R assessed as fungal growth inhibition; assay type: functional
[3] = tested on: Aspergillus fumigatus; test: Antifungal activity against Aspergillus fumigatus GIMCC 3.19 assessed as fungal growth inhibition incubated for 24 hrs by two-fold serial dilution method; assay type: functional
[4] = tested on: Aspergillus flavus; test: Synergistic antifungal activity against Aspergillus flavus ATCC 16870 assessed as fractional inhibitory concentration index incubated for 24 hrs in presence of fluconazole by checkerboard broth microdilution method; assay type: functional
[5] = tested on: Candida albicans; test: Synergistic antifungal activity against Candida albicans ATCC 76615 assessed as polyoxin B MIC incubated for 24 hrs by checkerboard broth microdilution method; assay type: functional
[6] = tested on: Candida albicans; test: Antifungal activity against Fluconazole-resistant Candida albicans ATCC 76615R assessed as fungal growth inhibition; assay type: functional
[7] = Cytotoxicity against human A549 cells assessed as cell viability at 64 ug/ml incubated for 24 hrs by CCK-8 assay relative to control; assay type: toxicity, cell-based; settings: at 64 µg/mL, read-out: Activity
[8] = tested on: Candida albicans; test: Synergistic antifungal activity against Candida albicans ATCC 76615 assessed as fractional inhibitory concentration index incubated for 24 hrs in presence of polyoxin B by checkerboard broth microdilution method; assay type: functional
[9] = tested on: Aspergillus flavus; test: Synergistic antifungal activity against Aspergillus flavus ATCC 16870 assessed as polyoxin B MIC incubated for 24 hrs by checkerboard broth microdilution method; assay type: functional
[10] = tested on: Aspergillus flavus; test: Synergistic antifungal activity against Aspergillus flavus ATCC 16870 assessed as fluconazole MIC incubated for 24 hrs in by checkerboard broth microdilution method; assay type: functional
[11] = tested on: Candida albicans; test: Antifungal activity against Candida albicans ATCC 76615 assessed as inhibition of cell wall synthesis incubated for 24 hrs in absence of sorbitol; assay type: functional
[12] = tested on: Aspergillus fumigatus; test: Antifungal activity against Aspergillus fumigatus GIMCC 3.19 assessed as inhibition of cell wall synthesis incubated for 24 hrs in presence of sorbitol; assay type: functional
[13] = tested on: A549; test: Cytotoxicity against human A549 cells assessed as cell viability incubated for 24 hrs at 128 ug/ml by CCK-8 assay relative to control; settings: dose 128 µg/ml
[14] = tested on: Cryptococcus neoformans; test: Synergistic antifungal activity against Cryptococcus neoformans ATCC 32719 assessed as fractional inhibitory concentration index incubated for 24 hrs in presence of polyoxin B by checkerboard broth microdilution method; assay type: functional
[15] = tested on: Aspergillus fumigatus; test: Synergistic antifungal activity against Aspergillus fumigatus GIMCC 3.19 assessed as fluconazole MIC incubated for 24 hrs in by checkerboard broth microdilution method; assay type: functional
[16] = tested on: Candida albicans; test: Synergistic antifungal activity against Candida albicans ATCC 76615 assessed as fractional inhibitory concentration index incubated for 24 hrs in presence of fluconazole by checkerboard broth microdilution method; assay type: functional
[17] = Cytotoxicity against human A549 cells assessed as cell viability at 8 ug/ml incubated for 24 hrs by CCK-8 assay relative to control; assay type: toxicity, cell-based; settings: at 8 µg/mL, read-out: Activity
[18] = tested on: Aspergillus fumigatus; test: Antifungal activity against Fluconazole-resistant Aspergillus fumigatus GIMCC 3.19R assessed as fungal growth inhibition; assay type: functional
[19] = Inhibition of Candida tropicalis ATCC 750 chitin synthase using UDP-GlcNAc as substrate incubated for 1 hr by absorbance based assay
[20] = tested on: Cryptococcus neoformans; test: Antifungal activity against Cryptococcus neoformans ATCC 32719 assessed as fungal growth inhibition incubated for 24 hrs by two-fold serial dilution method; assay type: functional
[21] = tested on: Aspergillus flavus; test: Synergistic antifungal activity against Aspergillus flavus ATCC 16870 assessed as fractional inhibitory concentration index incubated for 24 hrs in presence of polyoxin B by checkerboard broth microdilution method; assay type: functional
[22] = tested on: Aspergillus fumigatus; test: Synergistic antifungal activity against Aspergillus fumigatus GIMCC 3.19 assessed as fractional inhibitory concentration index incubated for 24 hrs in presence of polyoxin B by checkerboard broth microdilution method; assay type: functional
[23] = tested on: Candida albicans; test: Synergistic antifungal activity against Candida albicans ATCC 76615 assessed as fluconazole MIC incubated for 24 hrs in by checkerboard broth microdilution method; assay type: functional
[24] = tested on: Candida albicans; test: Antifungal activity against Candida albicans ATCC 76615 assessed as inhibition of cell wall synthesis incubated for 24 hrs in presence of sorbitol; assay type: functional
[25] = tested on: Aspergillus flavus; test: Antifungal activity against Fluconazole-resistant Aspergillus flavus ATCC 16870R assessed as fungal growth inhibition; assay type: functional
[26] = Cytotoxicity against human A549 cells assessed as cell viability at 16 ug/ml incubated for 24 hrs by CCK-8 assay relative to control; assay type: toxicity, cell-based; settings: at 16 µg/mL, read-out: Activity
[27] = tested on: Candida albicans; test: Antifungal activity against Candida albicans ATCC 76615 assessed as fungal growth inhibition incubated for 24 hrs by two-fold serial dilution method; assay type: functional
[28] = tested on: Aspergillus fumigatus; test: Synergistic antifungal activity against Aspergillus fumigatus GIMCC 3.19 assessed as polyoxin B MIC incubated for 24 hrs by checkerboard broth microdilution method; assay type: functional
[29] = Cytotoxicity against human A549 cells assessed as cell viability at 4 ug/ml incubated for 24 hrs by CCK-8 assay relative to control; assay type: toxicity, cell-based; settings: at 4 µg/mL, read-out: Activity
[30] = tested on: Aspergillus fumigatus; test: Antifungal activity against Aspergillus fumigatus GIMCC 3.19 assessed as inhibition of cell wall synthesis incubated for 24 hrs in absence of sorbitol; assay type: functional
[31] = tested on: Candida tropicalis; test: Non competitive inhibition of Candida tropicalis ATCC 750 chitin synthase using UDP-GlcNAc as substrate assessed as decrease in Vmax with constant Km at 0.05 to 0.15 mM incubated for 1 hr by Michaelis-Menten analysis; settings: dose 0.05-0.15 mM
[32] = tested on: Cryptococcus neoformans; test: Synergistic antifungal activity against Cryptococcus neoformans ATCC 32719 assessed as fractional inhibitory concentration index incubated for 24 hrs in presence of fluconazole by checkerboard broth microdilution method; assay type: functional
[33] = tested on: Aspergillus flavus; test: Antifungal activity against Aspergillus flavus ATCC 16870 assessed as inhibition of cell wall synthesis incubated for 24 hrs in presence of sorbitol; assay type: functional
[34] = tested on: Aspergillus fumigatus; test: Synergistic antifungal activity against Aspergillus fumigatus GIMCC 3.19 assessed as fractional inhibitory concentration index incubated for 24 hrs in presence of fluconazole by checkerboard broth microdilution method; assay type: functional
[35] = tested on: Cryptococcus neoformans; test: Synergistic antifungal activity against Cryptococcus neoformans ATCC 32719 assessed as polyoxin B MIC incubated for 24 hrs in by checkerboard broth microdilution method; assay type: functional
[36] = tested on: Cryptococcus neoformans; test: Antifungal activity against Cryptococcus neoformans ATCC 32719 assessed as inhibition of cell wall synthesis incubated for 24 hrs in presence of sorbitol; assay type: functional
[37] = tested on: Cryptococcus neoformans; test: Antifungal activity against Fluconazole-resistant Cryptococcus neoformans ATCC 32719R assessed as fungal growth inhibition; assay type: functional
[38] = tested on: Candida tropicalis; test: Non competitive inhibition of Candida tropicalis ATCC 750 chitin synthase using UDP-GlcNAc as substrate assessed as Km at 0.05 to 0.15 mM incubated for 1 hr by Michaelis-Menten analysis; settings: dose 0.05-0.15 mM
[39] = Cytotoxicity against human A549 cells assessed as cell viability at 32 ug/ml incubated for 24 hrs by CCK-8 assay relative to control; assay type: toxicity, cell-based; settings: at 32 µg/mL, read-out: Activity
[40] = tested on: Candida tropicalis; test: Inhibition of Candida tropicalis ATCC 750 chitin synthase using […] as substrate at 300 ug/ml incubated for 1 hr by absorbance based assay relative to control; settings: dose 300.0 µg/ml
[41] = tested on: Aspergillus flavus; test: Antifungal activity against Aspergillus flavus ATCC 16870 assessed as fungal growth inhibition incubated for 24 hrs by two-fold serial dilution method; assay type: functional
[42] = tested on: Cryptococcus neoformans; test: Antifungal activity against Cryptococcus neoformans ATCC 32719 assessed as inhibition of cell wall synthesis incubated for 24 hrs in absence of sorbitol; assay type: functional
[43] = Non competitive inhibition of Candida tropicalis ATCC 750 chitin synthase using UDP-GlcNAc as substrate assessed as inhibition constant incubated for 1 hr by double reciprocal plot analysis
[44] = tested on: Aspergillus flavus; test: Antifungal activity against Aspergillus flavus ATCC 16870 assessed as inhibition of cell wall synthesis incubated for 24 hrs in absence of sorbitol; assay type: functional
[45] = tested on: Candida tropicalis; test: Non competitive inhibition of Candida tropicalis ATCC 750 chitin synthase using UDP-GlcNAc as substrate assessed as Vmax at 0.05 to 0.15 mM incubated for 1 hr by Michaelis-Menten analysis; settings: dose 0.05-0.15 mM
[46] = tested on: Cryptococcus neoformans; test: Synergistic antifungal activity against Cryptococcus neoformans ATCC 32719 assessed as fluconazole MIC incubated for 24 hrs in by checkerboard broth microdilution method; assay type: functional

For O=C(Nc1cccc(C(F)(F)F)c1)C1CCN(CC(=O)N2CCC3(CCNC3=O)CC2)CC1, which IC50 [1] is on record?
Its IC50 is 100 µM.

Which results are given for O=C(/C=C/C(=O)Nc1ccc2c(c1)C(=O)NC1(CCSC1)N2)Nc1ccc([N+](=O)[O-])cc1 (stereo unspecified)?
MIC [2]: 8 µg/mL (≈ 17.6 µM); MIC [3]: 2 µg/mL (≈ 4.41 µM); fractional inhibitory concentration index (FICI) [4]: 0.5; MIC [5]: 2 µg/mL; MIC [6]: 8 µg/mL (≈ 17.6 µM); viability at 24 h, 64 ug/ml [7]: 67.1%; fractional inhibitory concentration index (FICI) [8]: 0.75; MIC [9]: 2 µg/mL; MIC [10]: 1 µg/mL; MIC [11]: 4 µg/mL (≈ 8.82 µM); MIC [12]: 128 µg/mL; viability [13]: 62.2%; fractional inhibitory concentration index (FICI) [14]: 0.75; MIC [15]: 4 µg/mL; fractional inhibitory concentration index (FICI) [16]: 0.5; viability at 24 h, 8 ug/ml [17]: 94.3%; MIC [18]: 8 µg/mL (≈ 17.6 µM); IC50 [19]: 107 µM; MIC [20]: 2 µg/mL (≈ 4.41 µM); fractional inhibitory concentration index (FICI) [21]: 0.375; fractional inhibitory concentration index (FICI) [22]: 1; MIC [23]: 0.5 µg/mL; MIC [24]: 64 µg/mL; MIC [25]: 8 µg/mL (≈ 17.6 µM); viability at 24 h, 16 ug/ml [26]: 94%; MIC [27]: 1 µg/mL (≈ 2.21 µM); MIC [28]: 8 µg/mL; viability at 24 h, 4 ug/ml [29]: 95.1%; MIC [30]: 8 µg/mL (≈ 17.6 µM); inhibition [31]: Active; fractional inhibitory concentration index (FICI) [32]: 1; MIC [33]: 64 µg/mL; fractional inhibitory concentration index (FICI) [34]: 0.75; MIC [35]: 4 µg/mL; MIC [36]: 32 µg/mL; MIC [37]: 4 µg/mL (≈ 8.82 µM); Km [38]: 5.18 mM; viability at 24 h, 32 ug/ml [39]: 87.8%; inhibition [40]: 82.3%; MIC [41]: 1 µg/mL (≈ 2.21 µM); MIC [42]: 4 µg/mL (≈ 8.82 µM); Ki [43]: 160 µM; MIC [44]: 4 µg/mL (≈ 8.82 µM); Vmax [45]: 1.21 deltaOD/hr; MIC [46]: 2 µg/mL
